PubChem BioAssay AID2060350 (Molecular Pharmacology Branch, DTP, NCI, 2025)
Values joined by “and” are separate entries in the source; they are usually repeats but may differ in a detail not shown here. Equal values may be shown once.

System: PDC 521955-158-R6-J3 spheroids, viability
Test: Anticancer human tumor 521955-158-R6-J3-PDC patient-derived pancreatic carcinoma cell line growth inhibition [TAK]
Details: spheroids with HUVEC and MSC; for viability, T/C: stronger effect = lower value
Procedure, shortened: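 Drug combinations, each paired with TAK-243 or ipatasertib, were tested on multi-cell spheroids of 60% malignant cells, 25% HUVEC and 15% hMSC. Top concentrations were at or near the clinical Cmax (10 microM if undetermined), decreasing by half-log; viability is given as % test/control.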

[1] = curve of first compound, second compound 0.3 µM
[2] = curve of first compound, second compound 0.949 µM
[3] = curve of first compound, second compound 3 µM
[4] = curve of first compound, second compound 9.49 µM
[5] = curve of first compound, second compound 30 µM
[6] = second compound 0.3 µM, first compound 0.316 µM
[7] = second compound 0.3 µM, first compound 1 µM
[8] = second compound 0.3 µM, first compound 3.16 µM
[9] = second compound 0.3 µM, first compound 10 µM
[10] = second compound 0.949 µM, first compound 0.316 µM
[11] = second compound 0.949 µM, first compound 1 µM
[12] = second compound 0.949 µM, first compound 3.16 µM
[13] = second compound 0.949 µM, first compound 10 µM
[14] = second compound 3 µM, first compound 0.316 µM
[15] = second compound 3 µM, first compound 1 µM
[16] = second compound 3 µM, first compound 3.16 µM
[17] = second compound 3 µM, first compound 10 µM
[18] = second compound 9.49 µM, first compound 0.316 µM
[19] = second compound 9.49 µM, first compound 1 µM
[20] = second compound 9.49 µM, first compound 3.16 µM
[21] = second compound 9.49 µM, first compound 10 µM
[22] = second compound 30 µM, first compound 0.316 µM
[23] = second compound 30 µM, first compound 1 µM
[24] = second compound 30 µM, first compound 3.16 µM
[25] = second compound 30 µM, first compound 10 µM
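Note: spheroids exposed to drugs for 7 days before readout.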
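Throughout, for viability, T/C: 100% = DMSO vehicle control viability.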

Cn1cnc2c(F)c(Nc3ccc(Br)cc3Cl)c(C(=O)NOCCO)cc21 + CC(C)NCC(C(=O)N1CCN(c2ncnc3c2C(C)CC3O)CC1)c1ccc(Cl)cc1
IC50 [1]: 326 nM | IC50 [2]: 176 nM | IC50 [3]: 324 nM | IC50 [4]: 141 nM | IC50 [5]: 186 nM | viability, T/C (second compound 0.3 µM, first compound 0.00949 µM): 66.8% | viability, T/C (second compound 0.3 µM, first compound 0.03 µM): 60.1% | viability, T/C (second compound 0.3 µM, first compound 0.0949 µM): 54.6% | viability, T/C (second compound 0.3 µM, first compound 0.3 µM): 47.5% | viability, T/C (second compound 0.3 µM, first compound 0.949 µM): 51.8% | viability, T/C (second compound 0.3 µM, first compound 3 µM): 38.9% | viability, T/C (second compound 0.949 µM, first compound 0.00949 µM): 69.6% | viability, T/C (second compound 0.949 µM, first compound 0.03 µM): 58.4% | viability, T/C (second compound 0.949 µM, first compound 0.0949 µM): 48.3% | viability, T/C (second compound 0.949 µM, first compound 0.3 µM): 49.7% | viability, T/C (second compound 0.949 µM, first compound 0.949 µM): 43.8% | viability, T/C (second compound 0.949 µM, first compound 3 µM): 25.7% | viability, T/C (second compound 3 µM, first compound 0.00949 µM): 68.2% | viability, T/C (second compound 3 µM, first compound 0.03 µM): 60.9% | viability, T/C (second compound 3 µM, first compound 0.0949 µM): 52.4% | viability, T/C (second compound 3 µM, first compound 0.3 µM): 51.8% | viability, T/C (second compound 3 µM, first compound 0.949 µM): 43% | viability, T/C (second compound 3 µM, first compound 3 µM): 21.6% | viability, T/C (second compound 9.49 µM, first compound 0.00949 µM): 66.8% | viability, T/C (second compound 9.49 µM, first compound 0.03 µM): 55.7% | viability, T/C (second compound 9.49 µM, first compound 0.0949 µM): 47.8% | viability, T/C (second compound 9.49 µM, first compound 0.3 µM): 49.5% | viability, T/C (second compound 9.49 µM, first compound 0.949 µM): 33.9% | viability, T/C (second compound 9.49 µM, first compound 3 µM): 15.8% | viability, T/C (second compound 30 µM, first compound 0.00949 µM): 64.3% | viability, T/C (second compound 30 µM, first compound 0.03 µM): 56.7% | viability, T/C (second compound 30 µM, first compound 0.0949 µM): 49.6% | viability, T/C (second compound 30 µM, first compound 0.3 µM): 50.1% | viability, T/C (second compound 30 µM, first compound 0.949 µM): 35.8% | viability, T/C (second compound 30 µM, first compound 3 µM): 15.1%

COc1c(OCCCN2CCOCC2)ccc2c3n(c(=NC(=O)c4cnc(N)nc4)nc12)CCN3
viability, T/C (compound 0.00316 µM): 85.3% and 76.8% | viability, T/C (compound 0.01 µM): 79.2% and 62.1% | viability, T/C (compound 0.0316 µM): 61.2% and 49.2% | viability, T/C (compound 0.1 µM): 47.5% and 35.9% | viability, T/C (compound 0.316 µM): 30.7% and 23.5% | viability, T/C (compound 1 µM): 23.3% and 18.5% | IC50 (curve of compound): 76.2 nM and 28.1 nM

CCCS(=O)(=O)Nc1ccc(F)c(C(=O)c2c[nH]c3ncc(-c4ccc(Cl)cc4)cc23)c1F + CC(C)NCC(C(=O)N1CCN(c2ncnc3c2C(C)CC3O)CC1)c1ccc(Cl)cc1
IC50 [1]: > 100000 nM | IC50 [2]: > 100000 nM | IC50 [3]: 64000 nM | IC50 [4]: 60100 nM | IC50 [5]: 21800 nM | viability, T/C [6]: 143% | viability, T/C [7]: 89.8% | viability, T/C [8]: 96.1% | viability, T/C [9]: 92.2% | viability, T/C (second compound 0.3 µM, first compound 31.6 µM): 79.8% | viability, T/C (second compound 0.3 µM, first compound 100 µM): 176% | viability, T/C [10]: 98.1% | viability, T/C [11]: 108% | viability, T/C [12]: 80.6% | viability, T/C [13]: 128% | viability, T/C (second compound 0.949 µM, first compound 31.6 µM): 79.5% | viability, T/C (second compound 0.949 µM, first compound 100 µM): 159% | viability, T/C [14]: 93.3% | viability, T/C [15]: 97.5% | viability, T/C [16]: 81% | viability, T/C [17]: 97.4% | viability, T/C (second compound 3 µM, first compound 31.6 µM): 66.6% | viability, T/C (second compound 3 µM, first compound 100 µM): 39.5% | viability, T/C [18]: 94.8% | viability, T/C [19]: 98.5% | viability, T/C [20]: 78.5% | viability, T/C [21]: 88.9% | viability, T/C (second compound 9.49 µM, first compound 31.6 µM): 87.4% | viability, T/C (second compound 9.49 µM, first compound 100 µM): 20.4% | viability, T/C [22]: 106% | viability, T/C [23]: 108% | viability, T/C [24]: 132% | viability, T/C [25]: 99.8% | viability, T/C (second compound 30 µM, first compound 31.6 µM): 20.2% | viability, T/C (second compound 30 µM, first compound 100 µM): 7.85%

CC(C)(C)c1nc(-c2cccc(NS(=O)(=O)c3c(F)cccc3F)c2F)c(-c2ccnc(N)n2)s1 + CC(C)NCC(C(=O)N1CCN(c2ncnc3c2C(C)CC3O)CC1)c1ccc(Cl)cc1
IC50 [1]: > 10000 nM | IC50 [2]: > 10000 nM | IC50 [3]: > 10000 nM | IC50 [4]: > 10000 nM | IC50 [5]: > 10000 nM | viability, T/C (second compound 0.3 µM, first compound 0.0316 µM): 104% | viability, T/C (second compound 0.3 µM, first compound 0.1 µM): 128% | viability, T/C [6]: 136% | viability, T/C [7]: 129% | viability, T/C [8]: 107% | viability, T/C [9]: 107% | viability, T/C (second compound 0.949 µM, first compound 0.0316 µM): 98.7% | viability, T/C (second compound 0.949 µM, first compound 0.1 µM): 123% | viability, T/C [10]: 136% | viability, T/C [11]: 129% | viability, T/C [12]: 105% | viability, T/C [13]: 85.8% | viability, T/C (second compound 3 µM, first compound 0.0316 µM): 91.9% | viability, T/C (second compound 3 µM, first compound 0.1 µM): 110% | viability, T/C [14]: 117% | viability, T/C [15]: 119% | viability, T/C [16]: 100% | viability, T/C [17]: 73.8% | viability, T/C (second compound 9.49 µM, first compound 0.0316 µM): 84.2% | viability, T/C (second compound 9.49 µM, first compound 0.1 µM): 97.4% | viability, T/C [18]: 118% | viability, T/C [19]: 119% | viability, T/C [20]: 94.8% | viability, T/C [21]: 65% | viability, T/C (second compound 30 µM, first compound 0.0316 µM): 87.9% | viability, T/C (second compound 30 µM, first compound 0.1 µM): 83.5% | viability, T/C [22]: 95.5% | viability, T/C [23]: 83.8% | viability, T/C [24]: 73.2% | viability, T/C [25]: 68.6%
